Source: patent publication US20240316051A1, “A PHARMACEUTICAL COMBINATION AND USE THEREOF” (Ascentage Pharma (Suzhou) Co., Ltd., priority 2021, published 2024)

Columns and labels:
Pfeiffer Cell line = assay: Cell proliferation, Pfeiffer cell line; assay type: cell-based; conditions: Homo sapiens, anti-proliferative IC50, Table 4A
Method: (§1) Analysis of Cell Proliferation:
(§2) To assess the effect of PRC2 inhibition on cell growth, cells were seeded in 96-well cell culture plates at a density of 2 000-3 000 cells/well in 200 μL of culture medium, and treated with serially diluted compounds for 7 days at 37° C. in an atmosphere of 5% CO2. Cell growth was evaluated by a […] WST-8 assay (Dojindo Molecular Technologies) using a Tecan Infinite M1000 multimode microplate reader (Tecan, Morrisville, NC). The WST-8 reagent was added to the plate, incubated for 1-4 h, and read at 450 nm. The readings were normalized to the DMSO-treated cells, and the IC50 was calculated by nonlinear regression analysis using GraphPad Prism 6 software

EED (1-441)-His protein = biological target: T1, EED (1-441)-His protein (Homo sapiens, UniProt O75530); assay: EED-H3K27Me3 peptide competition binding assay by AlphaScreen; conditions: Table 4A, read-out: Alpha screen
T1 construct: 20 nM EED (1-441)-His protein
In short: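 EED(1-441)-His was preincubated 15 min with compound, then biotin-H3K27Me3(19-33) peptide added for 30 min; both were added as 20 nM solutions in 25 mM HEPES pH 8, 0.02% Tween-20, 0.5% BSA. Ni-chelate acceptor and streptavidin donor beads (10 μg/ml each final) were added for 1 h in the dark at RT. Signal read at 615 nm (680 nm excitation), normalised to controls and fitted to dose-response for IC50.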

[1] = tested on: human B cell lymphoma cell KARPAS422; assay: Cell proliferation (WST-8), KARPAS422, 7 days; assay type: cell-based; conditions: KARPAS-422, 168 h, WST-8, Table 4A, read-out: Karpas Cell line
Method: as §1, §2

T1 sequence (O75530 whole entry): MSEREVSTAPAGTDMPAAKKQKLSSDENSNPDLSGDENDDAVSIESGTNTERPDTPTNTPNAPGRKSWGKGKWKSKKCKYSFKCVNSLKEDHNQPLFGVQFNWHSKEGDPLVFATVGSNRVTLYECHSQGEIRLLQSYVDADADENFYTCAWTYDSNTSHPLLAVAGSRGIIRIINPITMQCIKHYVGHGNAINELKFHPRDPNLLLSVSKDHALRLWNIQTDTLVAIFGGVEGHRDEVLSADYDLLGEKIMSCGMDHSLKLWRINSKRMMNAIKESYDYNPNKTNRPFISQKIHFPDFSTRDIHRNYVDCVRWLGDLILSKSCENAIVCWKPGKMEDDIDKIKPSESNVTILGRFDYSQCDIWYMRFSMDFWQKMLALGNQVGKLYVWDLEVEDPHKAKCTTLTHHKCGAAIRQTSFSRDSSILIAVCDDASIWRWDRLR

O=C1c2ncn3c(NCc4c(F)ccc5c4CCO5)ncc(c23)-c2sccc2CN1C1CC1 [Compound 87, 4-cyclopropyl-11-(((5-fluoro-2,3-dihydrobenzofuran-4-yl)methyl)amino)-4,5-dihydro-3H-8-thia-2,4, 10,11a-tetraazacyclopenta[4,5]cycloocta[1,2,3-cd] inden-3-one]
IC50 (Pfeiffer Cell line): 0.018 nM
IC50 (EED (1-441)-His protein): 11.1 nM
IC50 [1]: 8.67 nM
